US20250241890A1, “1,4-DIUREAS AND 1,4-DITHIOUREAS AND USES THEREOF” (Purdue Research Foundation, priority 2024, published 2025)
“Also recorded” adds a separate entry of the source.

target: T1, α-synuclein (α-syn) (Homo sapiens, UniProt P37840); experiment: Thioflavin T (ThT) fluorescence assay of α-syn fibril formation; assay type: biochemical; conditions: α-syn 2 μM final concentration, compounds at 100 μM, average of three replicates with SEM
T1 construct: purchased rPeptide (Watkinsville, GA)
Protocol: Chemical and peptide source. Dimethylsulfoxide (DMSO) and thioflavin-T (ThT) were purchased from Alfa Aesar (Ward Hill, MA). Recombinant α-synuclein (α-syn) was procured from rPeptide (WatKinsville, GA). The recombinant p-tau isoform 1N4R was prepared as published previously (Fortin et al. 2021, Sui et al. 2015, Liu et al. 2020). Concerning the preparation of tau 0N4R, a bacterial expression plasmid consisting of the vector pET30a carrying a cDNA encoding the human Tau 0N4R isoform was a kind gift of Dr. Benjamin Wolozin (Boston University). E. coli stock (Rosetta BL21 E. coli (CamR) containing pET30a [0N4R tau wt] (KanR)) was grown in LB medium supplemented with kanamycin (50 μg/mL) and chloramphenicol (50 μg/mL). Protein over-expression was induced by the addition of 1 mM IPTG for ˜18 hours at 37° C., and cells were pelleted by centrifugation at 6,000 g for 15 minutes at 4° C. The cells were resuspended in lysis buffer (10 mM Hepes, pH 7.4, 50 mM NaCl, 1 mM MgCl2, 1 mM PMSF, 1× PIC, and 0.5 mM DTT) and lysed by sonication at 30 seconds “On” and 1 minute “Off” at ˜30-45% power for ˜3-5 minutes. Lysate was centrifuged at 10,000 rpm for 10 minutes at 4° C., and supernatant was transferred with 7.8 ml (total) of 3M NaCl. The lysate was incubated for 10 minutes in 80° C. water bath, then cooled for 10 minutes in an ice bath. The lysate was centrifuged at 10,000 rpm at 4° C. for 10 minutes, and the supernatant was transferred to a new tube. The supernatant was dialyzed overnight against cation exchange buffer (50 mM MES, […], 1 mM DTT, pH 6.0). The dialysate was loaded onto a HiPrep SP HP column, and proteins were eluted with a linear gradient ranging from 50 mM to 1 M NaCl. General Characterizations. ^1H and ^13C {1H} NMR spectra were recorded using a 500 MHz Bruker instrument working at a frequency of 500 MHz for ^1H and at 126 MHz for ^13C. Chemical shifts are reported in ppm using residual solvent resonances as internal reference (δ 2.50 and δ 39.51 for ^1H and ^13C in DMSO-d6, respectively). ^1H NMR data are reported as follows. b=broad, s=singlet, d=doublet, t=triplet, q=quartet, and m=multiplet. Coupling constants are given in hertz. The purity of all compounds and synthetic intermediates was judged to be 95% or better based on ^1H NMR. IR measurements were performed in a Nicolet FTIR as thin films in the Purdue Drug Discovery facility. High-resolution mass spectrometry analyses were conducted at the MSU Mass Spectrometry facility. Thioflavin fluorescence assays. […] The recombinant α-syn obtained from rPeptide has been validated with proper quality control to confirm the monomeric state of the protein. Kinetics of fibril formation have been performed using ThT as published previously.^6, 12, 13, 24 The fluorescence emission experiments were performed with the excitation and emission wavelengths set at 440 and 485 nm, respectively, with a Synergy HT multi-mode microplate reader (BioTek, Winooski, VT). Samples were measured in three replicates. Experiments were repeated three times using different α-syn stock solutions. For each time point, arbitrary units of fluorescence were calculated from the mean values normalized against the maximum value. The percentage of fluorescence intensity at the plateau phase in Table 1 was expressed as mean #SEM. Concerning the dose response curve depicted in FIG. 2, the data were plotted using GraphPad Prism. Photo-induced Cross-linking of Unmodified Proteins (PICUP) Assay. To induce oligomerization by cross-linking, α-syn (from Rpeptide, LLC) was diluted in 10 mM phosphate buffer (pH 7.4) to reach a final concentration of 50 μM. Different compounds were added to the protein solution at a final concentration of 50 μM, resulting in a molar ratio of 1:1. PICUP assays were performed with the following controls: samples without light exposition, without Ru(bpy) or ammonium persulfate, and without compound (i.e., 0.125% DMSO). […]

% ThT intensity (100 μM), maximum ThT intensity in percentage	Molecule
19 41.6 ± 3.6%	1,1′-(1,4-phenylene)bis(3-(pyridin-4-yl)urea) [Compound 19]
20 85% ± <15	1,1′-(1,4-phenylene)bis(3-cyclohexylthiourea) [Compound 20]

same assay, conditions: α-syn 2 μM final concentration, compounds at 100 μM, average of three replicates with SEM; read-out: % ThT intensity (100 μM), maximum ThT intensity in percentage

remaining activity at 100 µM [%]	Molecule
57	O=C(Nc1ccc(NC(=O)Nc2ccc3[nH]ccc3c2)cc1)Nc1ccc2[nH]ccc2c1 [Compound 3, 3-(1H-indol-5-yl)-1-(4-{[(1H-indol-5-yl)carbamoyl]amino}phenyl)urea]
93.5	O=C(Nc1ccccc1)Nc1ccc(NC(=O)Nc2ccccc2)cc1 [Compound 9, 1-phenyl-3-{4-[(phenylcarbamoyl)amino]phenyl}urea]
94	S=C(Nc1ccccc1)Nc1ccc(NC(=S)Nc2ccccc2)cc1 [Compound 10, 1-phenyl-3-{4-[(phenylcarbamothioyl)amino]phenyl}thiourea]
91.6	O=C(Nc1cccc2[nH]ccc12)N[C@H]1CC[C@H](NC(=O)Nc2cccc3[nH]ccc23)CC1 [Compound 21, 1,1′-((1R,4R)-cyclohexane-1,4-diyl)bis(3-(1H-indol-4-yl)urea)]
93.5	Cc1c(NC(=O)Nc2ccc(N3CCOCC3)cc2)cccc1NC(=O)Nc1ccc(N2CCOCC2)cc1 [Compound 22, 1,1′-(2-methyl-1,3-phenylene)bis(3-(4-morpholinophenyl)urea)]

same assay, conditions: α-syn 6 μM final concentration, compounds at 100 μM, average of three replicates

maximum thioflavin T (ThT) intensity in percentage	Molecule
Compound 11 108.6 ± 4.7%	O=C(Nc1ccccc1)Nc1cccc(NC(=O)Nc2ccccc2)c1 [Compound 11, 3-phenyl-1-{3-[(phenylcarbamoyl)amino]phenyl}urea]
Compound 13 27.7 ± 2.9%	O=C(Nc1cccc(NC(=O)Nc2ccc3[nH]ccc3c2)c1)Nc1ccc2[nH]ccc2c1 [Compound 13, 3-(1H-indol-5-yl)-1-(3-{[(1H-indol-5-yl)carbamoyl]amino}phenyl)urea]
Compound 14 12.4 ± 1.8%	O=C(Nc1cccc(NC(=O)Nc2ccc3cc[nH]c3c2)c1)Nc1ccc2cc[nH]c2c1 [Compound 14, 3-(1H-indol-6-yl)-1-(3-{[(1H-indol-6-yl)carbamoyl]amino}phenyl)urea]
Compound 15 28.1 ± 2.1%	O=C(Nc1cccc(NC(=O)Nc2cccc3[nH]ccc23)c1)Nc1cccc2[nH]ccc12 [Compound 15, 3-(1H-indol-4-yl)-1-(3-{[(1H-indol-4-yl)carbamoyl]amino}phenyl)urea]
Compound 17 116.4 ± 8.8%	Cc1c(NC(=O)Nc2ccc3[nH]ccc3c2)cccc1NC(=O)Nc1ccc2[nH]ccc2c1 [Compound 17, 3-(1H-indol-5-yl)-1-(3-{[(1H-indol-5-yl)carbamoyl]amino}-2-methylphenyl)urea]

The remaining lines, values behind:

Molecule	maximum thioflavin T (ThT) intensity in percentage
O=C(Nc1cccc(NC(=O)Nc2cccc3[nH]ccc23)c1)Nc1cccc2[nH]ccc12 [Compound 12, 3-(1H-indol-4-yl)-1-(3-{[(1H-indol-4-yl)carbamoyl]amino}phenyl)urea]	Compound 12 8.8 ± 0.2%
Cc1c(NC(=O)Nc2cccc3[nH]ccc23)cccc1NC(=O)Nc1cccc2[nH]ccc12 [Compound 16, 3-(1H-indol-4-yl)-1-(3-{[(1H-indol-4-yl)carbamoyl]amino}-2-methylphenyl)urea]	Compound 16 23.4 ± 0.2%
Cc1c(NC(=O)Nc2ccc3cc[nH]c3c2)cccc1NC(=O)Nc1ccc2cc[nH]c2c1 [Compound 18, 3-(1H-indol-6-yl)-1-(3-{[(1H-indol-6-yl)carbamoyl]amino}-2-methylphenyl)urea]	Compound 18 49.7 ± 5.0%

target: T1, α-synuclein (α-syn); experiment: PICUP assay of α-syn oligomer formation; assay type: biochemical; conditions: α-syn 60 μM, compound 50 μM (~molar ratio 1:1)
Protocol: Chemical and peptide source. Dimethylsulfoxide (DMSO) and thioflavin-T (ThT) were purchased from Alfa Aesar (Ward Hill, MA). Recombinant α-synuclein (α-syn) was procured from rPeptide (WatKinsville, GA). The recombinant p-tau isoform 1N4R was prepared as published previously (Fortin et al. 2021, Sui et al. 2015, Liu et al. 2020). Concerning the preparation of tau 0N4R, a bacterial expression plasmid consisting of the vector pET30a carrying a cDNA encoding the human Tau 0N4R isoform was a kind gift of Dr. Benjamin Wolozin (Boston University). E. coli stock (Rosetta BL21 E. coli (CamR) containing pET30a [0N4R tau wt] (KanR)) was grown in LB medium supplemented with kanamycin (50 μg/mL) and chloramphenicol (50 μg/mL). Protein over-expression was induced by the addition of 1 mM IPTG for ˜18 hours at 37° C., and cells were pelleted by centrifugation at 6,000 g for 15 minutes at 4° C. The cells were resuspended in lysis buffer (10 mM Hepes, pH 7.4, 50 mM NaCl, 1 mM MgCl2, 1 mM PMSF, 1× PIC, and 0.5 mM DTT) and lysed by sonication at 30 seconds “On” and 1 minute “Off” at ˜30-45% power for ˜3-5 minutes. Lysate was centrifuged at 10,000 rpm for 10 minutes at 4° C., and supernatant was transferred with 7.8 ml (total) of 3M NaCl. The lysate was incubated for 10 minutes in 80° C. water bath, then cooled for 10 minutes in an ice bath. The lysate was centrifuged at 10,000 rpm at 4° C. for 10 minutes, and the supernatant was transferred to a new tube. The supernatant was dialyzed overnight against cation exchange buffer (50 mM MES, […], 1 mM DTT, pH 6.0). The dialysate was loaded onto a HiPrep SP HP column, and proteins were eluted with a linear gradient ranging from 50 mM to 1 M NaCl. General Characterizations. ^1H and ^13C {1H} NMR spectra were recorded using a 500 MHz Bruker instrument working at a frequency of 500 MHz for ^1H and at 126 MHz for ^13C. Chemical shifts are reported in ppm using residual solvent resonances as internal reference (δ 2.50 and δ 39.51 for ^1H and ^13C in DMSO-d6, respectively). ^1H NMR data are reported as follows. b=broad, s=singlet, d=doublet, t=triplet, q=quartet, and m=multiplet. Coupling constants are given in hertz. The purity of all compounds and synthetic intermediates was judged to be 95% or better based on ^1H NMR. IR measurements were performed in a Nicolet FTIR as thin films in the Purdue Drug Discovery facility. High-resolution mass spectrometry analyses were conducted at the MSU Mass Spectrometry facility. Thioflavin fluorescence assays. Thioflavin fluorescence assays were used to monitor fibril formation of commercial recombinant α-syn at a final concentration of 2 μM and treated with control DMSO and different compounds. The recombinant α-syn obtained from rPeptide has been validated with proper quality control to confirm the monomeric state of the protein. Kinetics of fibril formation have been performed using ThT as published previously.^6, 12, 13, 24 The fluorescence emission experiments were performed with the excitation and emission wavelengths set at 440 and 485 nm, respectively, with a Synergy HT multi-mode microplate reader (BioTek, Winooski, VT). Samples were measured in three replicates. Experiments were repeated three times using different α-syn stock solutions. For each time point, arbitrary units of fluorescence were calculated from the mean values normalized against the maximum value. The percentage of fluorescence intensity at the plateau phase in Table 1 was expressed as mean #SEM. Concerning the dose response curve depicted in FIG. 2, the data were plotted using GraphPad Prism. Photo-induced Cross-linking of Unmodified Proteins (PICUP) Assay. […] Different compounds were added to the protein solution at a final concentration of 50 μM, resulting in a molar ratio of 1:1. PICUP assays were performed with the following controls: samples without light exposition, without Ru(bpy) or ammonium persulfate, and without compound (i.e., 0.125% DMSO). […]

Molecule	effect on α-syn oligomer formation (high molecular weight bands) by PICUP
Nc1cccc2[nH]ccc12 [4-aminoindole, reference compound]	abrogated the formation of high molecular weight bands
Nc1ccc2[nH]ccc2c1 [5-aminoindole, reference compound]	abrogated the formation of high molecular weight bands
Nc1ccc2cc[nH]c2c1 [6-aminoindole, reference compound]	abrogated the formation of high molecular weight bands
O=C(Nc1ccc(NC(=O)Nc2ccc3[nH]ccc3c2)cc1)Nc1ccc2[nH]ccc2c1 [Compound 3, 3-(1H-indol-5-yl)-1-(4-{[(1H-indol-5-yl)carbamoyl]amino}phenyl)urea]	mediocre; also recorded: reduced slightly
